ChEMBL document CHEMBL1156471, “Targeting host cell furin proprotein convertases as a therapeutic strategy against bacterial toxins and viral pathogens” (J Biol Chem, 2007)
Active and inactive are the calls of the source. The rule behind the calls is not given here.

How the values were obtained:
[1] = test system: U-251; assay: Inhibition of proprotein convertase-mediated anthrax protective antigen-83 processing in human U251 cells at 20 uM by Western blot; format: cell-based; conditions: Bacillus anthracis
[2] = target: Furin (Homo sapiens, UniProt P09958)
Chain of Furin (P09958 whole entry): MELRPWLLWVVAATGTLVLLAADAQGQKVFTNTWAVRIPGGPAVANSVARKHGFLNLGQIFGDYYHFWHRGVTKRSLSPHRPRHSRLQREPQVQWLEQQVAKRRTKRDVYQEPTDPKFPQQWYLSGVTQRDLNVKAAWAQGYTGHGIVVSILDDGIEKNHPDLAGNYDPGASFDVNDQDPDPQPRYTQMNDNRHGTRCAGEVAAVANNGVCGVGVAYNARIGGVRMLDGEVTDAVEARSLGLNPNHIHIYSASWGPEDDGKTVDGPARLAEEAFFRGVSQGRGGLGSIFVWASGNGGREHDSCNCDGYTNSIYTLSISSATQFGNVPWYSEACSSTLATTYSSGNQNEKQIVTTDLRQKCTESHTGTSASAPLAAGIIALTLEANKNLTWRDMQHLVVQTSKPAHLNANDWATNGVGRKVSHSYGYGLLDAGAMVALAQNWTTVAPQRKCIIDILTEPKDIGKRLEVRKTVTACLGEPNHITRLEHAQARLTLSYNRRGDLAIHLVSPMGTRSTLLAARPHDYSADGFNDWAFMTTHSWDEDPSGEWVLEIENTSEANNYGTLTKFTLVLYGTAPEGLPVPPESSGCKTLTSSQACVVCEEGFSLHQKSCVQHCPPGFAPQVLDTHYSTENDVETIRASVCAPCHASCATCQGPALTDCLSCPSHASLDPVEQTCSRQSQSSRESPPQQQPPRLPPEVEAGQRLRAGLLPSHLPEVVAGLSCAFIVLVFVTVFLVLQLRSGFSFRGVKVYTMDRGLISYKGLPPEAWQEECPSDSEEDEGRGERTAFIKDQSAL

Row | Molecule | Activity [1] | Ki [2] [nM]
1 | H-TPRARRRKKRW-OH | Active | –
2 | H-TPRARRRKKRT-OH | Active | 23
3 | H-TPRARRRKKRY-OH | Active | –
4 | H-TPRARRRKKRY-NH2 | Active | 53
5 | H-TPRARRRKKRF-NH2 | Active | –
6 | H-TPRARRRKKRW-NH2 | Active | 59
7 | H-TPRARRRKKRF-OH | Active | 38
8 | H-TPRGRRRKKRG-NH2 | – | > 100
9 | H-TPRHRRRKKRG-NH2 | – | > 100
10 | H-TPRMRRRKKRG-OH | – | > 100
11 | C[C@@H](O)[C@H](N)C(=O)N1CCC[C@H]1C(=O)N[C@@H](CCCNC(=N)N)C(=O)NCCCCCC(=O)N[C@@H](CCCNC(=N)N)C(=O)N[C@@H](CCCNC(=N)N)C(=O)N[C@@H](CCCNC(=N)N)C(=O)N[C@@H](CCCCN)C(=O)N[C@@H](CCCCN)C(=O)N[C@@H](CCCNC(=N)N)C(=O)NCC(=O)O | – | > 100
12 | H-TPRTRRRKKRG-OH | – | > 100
13 | H-TPRERRRKAA-OH | – | > 100
